Measurements reported in patent publication US7968525B1, “Use of RNA interference to validate new termiticide target sites and a method of termite control” (University of Florida Research Foundation, Inc., priority 2007, dated 2011).

Key:
[1] = tested on: termite; conditions: bioassays, earlier work; cited from earlier work
[2] = tested on: beta glucosidase; conditions: in vitro enzyme assays, earlier work; cited from earlier work
[3] = tested on: exoglucanases; conditions: in vitro enzyme assays, earlier work; cited from earlier work
[4] = tested on: R. flavipes workers; experiment: dsRNA + JH III feeding assay, lethal times by probit analysis; assay type: in vivo, Reticulitermes flavipes; conditions: JH III alone
Protocol: Six additional developmental genes were targeted by combined dsRNA+JH III treatments: broad, farnesoic acid methyl transferase (FAMET-2), two family 15 cytochrome P450s (Cyp15-1, Cyp15-2), and two vitellogenin genes (Vit-1, Vit-2). dsRNAs corresponding to internal 500 base pair fragments of all six genes (see FIG. 22) were prepared as described under “description of the preferred embodiment”. Twenty μg of dsRNA was applied in 50 μL nanopure water to a penny-sized ([…]) paper disk. The disk was placed in a 5 cm tissue culture dish and 15 worker termites were added. Assays ran for 25 days at 60% relative humidity and 27 degrees C., with water being replenished and mortality/presoldier formation scored every 5th day.
LT50 and LT90 were determined from time-mortality data using probit analysis (SAS software; Cary, N.C.). In this context, the terms LT50 and LT90 refer to the estimated times at which 50% and 90% mortality occurs in response to the various RNAi treatments relative to JH III treatments alone (FIG. 23). Applying the six dsRNAs alone had no significant effects on survivorship. The LT50 and LT90 values for JH III alone were 34.5 and 65.7 days, respectively (as a result of fitness costs from elevated presoldier levels).

[5] = tested on: R. flavipes workers; experiment: Hex-2 dsRNA feeding bioassay with and without JH (morphology, lethal molts); assay type: in vivo, Reticulitermes flavipes; conditions: feeding on Hex-2 dsRNA alone or JH alone
Protocol: dsRNA Feeding bioassays. dsRNA-mediated gene silencing was accomplished using voluntary feeding bioassays. Termites were pre-starved for 12 h to standardize their hunger status before the assay. The bioassay was run by placing groups of 15 worker termites into 35-mm tissue culture dishes that contained 18 mm diam. treated paper towel disks. Multiple and single dose dsRNA regimes were tested. All assays were carried out for 24-d. Paper disk moisture was monitored every other day. Every 8th day, old paper disks were replaced with new ones. These new paper disks were treated exactly the same as previous ones. Feeding (mg/dish) was determined by comparing weights of paper disks before and after confinement with termites, whereas body weight (mg/termite) was measured by comparing termite weights before and after 8-day paper consumption and then by correcting for the number of live termites at the time of sampling. Paper disks were dried in a drying oven before weighing. Mortality, paper consumption, body weight change, and/or presoldier formation were documented every 8th day. The complete experimental design included two colonies (Colony-1 and -2), with three replicate dishes per treatment per colony.
For Cell-1 dsRNA feeding bioassays, the experimental design included two treatments (triple and single dose Cell-1 dsRNA) and a control (3 doses of dsRNA buffer; Ambion; Austin, Tex.). […]

OC[C@@H]1[C@@H](O[C@@H]2O[C@H](CO)[C@@H](O)[C@H](O)[C@H]2O)[C@H](O)[C@@H](O)c2nccn21 [CBI, cellobioimidazole]
termite mortality [1]: only moderate termite mortality
inhibition of beta glucosidase activity [2]: Good to excellent inhibition
inhibition of exoglucanases activity [3]: Good to excellent inhibition

fluromethyl cellobiose [FMCB]
termite mortality [1]: only moderate termite mortality
inhibition of beta glucosidase activity [2]: Good to excellent inhibition
inhibition of exoglucanases activity [3]: Good to excellent inhibition

COC(=O)/C=C(\C)CC/C=C(\C)CC[C@H]1OC1(C)C [JH III, juvenile hormone III]
LT50 ([4]; time to 50% mortality): 34.5 days
LT90 ([4]; time to 90% mortality): 65.7 days
caste phenotype induced [5]: wildtype caste phenotypes
